Measurements from US9120780B2, “Indole or indazole derivative or salt thereof” (TAIHO PHARMACEUTICAL CO., LTD., priority 2011, dated 2015).

How the values were obtained:
[1] = system: SK-BR-3 cells; assay: Measurement of cell growth inhibition (crystal violet staining); assay type: cell-based; conditions: Homo sapiens, 72 hours culture with test substance
Description: Cell growth was measured by a crystal violet staining method. […] The cells were cultured in a 5% CO2 incubator at 37° C. for 24 hours, and then test substances were added to the plate, followed by culturing for further 72 hours. […] The plate was left to stand at room temperature for 20 minutes for staining the cells. The plate was washed with water and dried, and 100 μL of a mixed solution of 0.05 M NaH2PO4 and ethanol (mixture in equal amounts) was added to each well. The absorbance at 540 nm was measured with a microplate reader (MTP-450, Corona Electric Co., Ltd.) as an index of the number of cells in each well. The inhibition rate (%) of cell growth by a compound of the present invention was determined by the following equation using the absorbance of a drug-untreated group (control) as a control. […] Inhibition rate (%)=(C−T)/C×100 T: absorbance in a well to which a test substance was added C: absorbance in a well to which no test substance was added

[2] = system: Human gastric cancer cells (NCI-N87); assay: Antitumor effect in subcutaneous transplantation model of human gastric cancer cell line NCI-N87; assay type: in vivo, nude mice; conditions: for anti-tumor effect versus comparative compounds 6 and 7 at the same dose (RTV on day 15): 2 mg/kg/day oral for all compounds, Student-t test; for inhibition of tumor growth (relative tumor volume, FIG. 1): 2 mg/kg/day orally once per day for 14 days, nude mice, NCI-N87; for anti-tumor effect versus comparative compounds 6 and 7 at increased dose (RTV): Examples at 2 mg/kg/day oral, comparative compounds 6 and 7 at 10 mg/kg/day
Description: Human gastric cancer cells (NCI-N87) (obtained from ATCC) were subcutaneously transplanted in nude mice, and at the time when the tumor volume of the nude mice in which the cancer cells had been survived became approximately 140 to 210 mm^3, stratified randomization was performed so that the average tumor volume of each group (6 animals were assigned to one group (grouping: on day 0)) became uniform. The compounds 1, 6, and 9 of the present invention and the comparative compounds 6 (the compound of Example 21 in WO 2010/106290) and 7 (the compound of Example 1 in WO 2010/106290) were orally administered daily once per day from day 1 for 14 days. Note that the comparative compounds were synthesized according to the method described in WO 2010/106290 (Table 22).
The doses of 2 mg/kg/day and 10 mg/kg/day were used for the comparative compounds 6 and 7, and the dose of 2 mg/kg/day was used for the compounds of Examples of 1, 6, and 9 of the present invention.
In order to compare the transition over time of the tumor growth in the administration of each test compound, the relative tumor volume (RTV) was calculated according to the following equation when the tumor volume on the grouping day was defined as 1 for the growth rate of tumor, and the transition of the average value of the RTV of each individual was shown in FIG. 1. RTV=(Tumor volume on tumor volume measurement day)/(Tumor volume when grouped) (Mathematical Formula 1)

[3] = biological target: human HSP90 alpha protein (N-terminal, amino acids 2-236) (Homo sapiens (Human), UniProt P07900); assay: Measurement of HSP90-binding activity (AlphaScreen competitive assay, biotin-labeled geldanamycin); conditions: inhibition of biotin-labeled geldanamycin binding to purified HSP90; read-out: HSP-binding activity IC50
Description: First, a solution of purified HSP90 was prepared as follows. […] The pET-HSP90N was introduced into Escherichia coli cells (BL21 (DE3), Stratagene Inc.), and then the Escherichia coli cells were cultured in the presence of 0.5 mM isopropyl-beta-D-thiogalactopyranoside (Sigma-Aldrich Corp.) at 37° C. for 4 hours. The Escherichia coli cells were collected, suspended in a lysis buffer (50 mM Tris-HCl (pH 7.5), 200 mM NaCl), and sonicated. The sonicated cell solution was centrifuged (40,000×g, 20 minutes) to obtain supernatant as a crude extract. The crude extract was fractionated by Ni Sepharose High Performance (GE Healthcare Japan Corporation) chromatography and HiLoad 26/60 Superdex 75 pg (GE Healthcare Japan Corporation), and the fraction in which HSP90 protein was concentrated was prepared so as to be a 50 mM Tris-HCl (pH 7.5)/20% glycerol solution as a purified HSP90 solution. The purified HSP90 solution was divided and stored at −80° C. until use.
The HSP90-binding activity was measured by an AlphaScreen competitive assay system. […] After reaction at room temperature for 2 hours, biotin-labeled geldanamycin was added to each reaction solution in an amount of 40 nM, followed by reaction for further 1 hour. […] After reaction in a dark place at room temperature for 1 hour, the fluorescence intensity in each well was measured with a multilabel plate reader, EnVision (Perkin Elmer, Inc.). The inhibition rate (%) of biotin-labeled geldanamycin binding by a compound of the present invention was determined by the following equation using the fluorescence signal of a test substance-free group (control) as a control. […] Inhibition rate (%)=(C−T)/C×100 T: signal in a well to which a test substance was added C: signal in a well to which no test substance was added

IC50 [1] | IC50 [3] | Structure (SMILES) | anti-tumor effect versus comparative compounds 6 and 7 at the same dose (RTV on day 15) [2] | inhibition of tumor growth (relative tumor volume, FIG. 1) [2] | anti-tumor effect versus comparative compounds 6 and 7 at increased dose (RTV) [2]
10 nM | 260 nM | CC(C)c1nn(-c2ccc(C(N)=O)c(NC(C)(C)C)c2)c2cccc(-n3cnc(-c4cnn(C)c4)c3)c12 [Example 9, 2-(Tert-butylamino)-4-(3-isopropyl-4-(4-(1-methyl-1H-pyrazol-4-yl)-1H-imidazol-1-yl)-1H-indazol-1-yl)benzamide] | significantly stronger anti-tumor effects than the comparative compounds 6 and 7 | inhibited the tumor growth within one week from the start of the administration | significantly stronger anti-tumor effect than any of the comparative compounds 6 and 7
30 nM | 100 nM | CCc1cc(C(N)=O)ccc1-n1nc(C(C)C)c2c(-n3cnc(-c4cnn(C)c4)c3)cccc21 [Example 6, 3-Ethyl-4-(3-isopropyl-4-(4-(1-methyl-1H-pyrazol-4-yl)-1H-imidazol-1-yl)-1H-indazol-1-yl)benzamide] | significantly stronger anti-tumor effects than the comparative compounds 6 and 7 | inhibited the tumor growth within one week from the start of the administration | significantly stronger anti-tumor effect than any of the comparative compounds 6 and 7
120 nM | 430 nM | Cc1cn(-c2ccc(C(N)=O)c(NC(C)(C)C)c2)c2cccc(-n3cnc(-c4cccnc4)c3)c12 [Example 47, 2-(Tert-butylamino)-4-{3-methyl-4-(4-(pyridin-3-yl)-1H-imidazolo-1-yl)-1H-indol-1-yl}benzamide] |  |  | 
140 nM | 160 nM | Cc1cc(C(N)=O)ccc1-n1nc(C(C)C)c2c(-n3cnc(-c4cccnc4)c3)cccc21 [Example 4, 4-(3-Isopropyl-4-(4-(pyridin-3-yl)-1H-imidazol-1-yl)-1H-indazol-1-yl)-3-methylbenzamide] |  |  | 
> 10000 nM | > 10000 nM | COc1cc2ccn(-c3ccc(C(N)=O)c(Nc4ccccc4)c3)c2cc1OC [Comparative Example 4, reference compound] |  |  | 
100 nM | 170 nM | CCc1cc(C(N)=O)ccc1-n1nc(C(F)(F)F)c2c(-n3cnc(-c4cccnc4)c3)cccc21 [Example 19, 3-Ethyl-4-(4-(4-(pyridin-3-yl)-1H-imidazol-1-yl)-3-(trifluoromethyl)-1H-indazol-1-yl)benzamide] |  |  | 
20 nM | 170 nM | CC(C)c1nn(-c2ccc(C(N)=O)c(NC(C)(C)C)c2)c2cccc(-n3cnc(-c4cccnc4)c3)c12 [Example 1, 2-(Tert-butylamino)-4-(3-isopropyl-4-(4-(pyridin-3-yl)-1H-imidazol-1-yl)-1H-indazol-1-yl)benzamide] | significantly stronger anti-tumor effects than the comparative compounds 6 and 7 | inhibited the tumor growth within one week from the start of the administration | significantly stronger anti-tumor effect than any of the comparative compounds 6 and 7
170 nM | 280 nM | NC(=O)c1ccc(-n2nc(C(F)(F)F)c3c(-n4cnc(-c5cccnc5)c4)cccc32)c(NC2CCC2)c1 [Example 23, 3-(Cyclobutylamino)-4-(4-(4-(pyridin-3-yl)-1H-imidazol-1-yl)-3-(trifluoromethyl)-1H-indazol-1-yl)benzamide] |  |  | 
